ChEMBL document CHEMBL5260795, “Antifungal potential of marine natural products” (Eur J Med Chem, 2017)
≈ marks a conversion by molar mass, not a printed value.

Columns and labels:
Pyricularia oryzae [1] = assay: Antifungal activity against Pyricularia oryzae assessed as inhibition of fungal growth; format: functional
Pyricularia oryzae [2] = assay: Antifungal activity against Pyricularia oryzae; format: functional
Alternaria solani = assay: Antifungal activity against Alternaria solani; format: functional
Candida tropicalis [3] = assay: Antifungal activity against clinical strain Candida tropicalis assessed as inhibition of fungal growth by atomatic microplate reader analysis; format: functional
Candida albicans [4] = assay: Antifungal activity against Candida albicans ATCC76615 assessed as inhibition of fungal growth by atomatic microplate reader analysis; format: functional
Trichophyton rubrum = assay: Antifungal activity against Trichophyton rubrum assessed as inhibition of fungal growth by atomatic microplate reader analysis; format: functional
Pichia kudriavzevii [5] = assay: Antifungal activity against clinical strain Candida krusei assessed as inhibition of fungal growth by atomatic microplate reader analysis; format: functional
Cryptococcus neoformans [6] = assay: Antifungal activity against Cryptococcus neoformans ATCC32609 assessed as inhibition of fungal growth by atomatic microplate reader analysis; format: functional
Aspergillus fumigatus [7] = assay: Antifungal activity against clinical strain Aspergillus fumigatus assessed as inhibition of fungal growth by atomatic microplate reader analysis; format: functional
Candida tropicalis [8] = assay: Antimicrobial activity against nystatin-resistant Candida tropicalis; format: functional
Candida albicans [9] = assay: Antimicrobial activity against Candida albicans assessed as inhibition of microbial growth; format: functional
Cryptococcus neoformans [10] = assay: Antimicrobial activity against Cryptococcus neoformans; format: functional
Candida tropicalis [11] = assay: Antimicrobial activity against amphotericin-B-resistant Candida tropicalis; format: functional
Lindra thalassiae = assay: Antifungal activity against Lindra thalassiae assessed as lethal dose; format: functional; details: Lindriella thalassiae; read-out: LD50 (the source's name)
Candida tropicalis [12] = assay: Antifungal activity against Candida tropicalis; format: functional
Aspergillus niger = assay: Antifungal activity against Aspergillus niger; format: functional
Candida albicans [13] = assay: Antimicrobial activity against Candida albicans assessed as reduction of microbial microbial growth; format: functional
Fusarium oxysporum = assay: Antifungal activity against Fusarium oxysporum; format: functional
Cryptococcus neoformans [14] = assay: Antifungal activity against Cryptococcus neoformans var. grubii assessed as fungal growth inhibition; format: functional
Cryptococcus neoformans [15] = assay: Antifungal activity against Cryptococcus neoformans assessed as fungal growth inhibition; format: functional
Aspergillus flavus = assay: Antifungal activity against Aspergillus flavus assessed as inhibition of fungal growth; format: functional, organism-based
Candida tropicalis [16] = assay: Antifungal activity against Candida tropicalis assessed as fungal growth inhibition; format: functional
Nannizzia gypsea = assay: Antifungal activity against Microsporum gypseum ATCC31388; format: functional
Fusarium graminearum = assay: Antimicrobial activity against Fusarium graminearum; format: functional
Aspergillus fumigatus [17] = assay: Antimicrobial activity against Aspergillus fumigatus; format: functional
Nakaseomyces glabratus = assay: Antifungal activity against fluconazole-resistant Candida glabrata by CLSI protocol based macrobroth dilution method; format: functional
Pichia kudriavzevii [18] = assay: Antifungal activity against fluconazole-resistant Candida krusei by CLSI protocol based macrobroth dilution method; format: functional
Globisporangium ultimum = assay: Antifungal activity against Pythium ultimum IFO32210 assessed as inhibition of fungal growth; format: functional
Botrytis cinerea = assay: Antifungal activity against Botrytis cinerea AJ 117140 assessed as inhibition of fungal growth; format: functional
Saprolegnia parasitica = assay: Antifungal activity against Saprolegnia parasitica IFO8978 assessed as inhibition of fungal growth; format: functional

CC(C)=CCn1cc(CC2NC(=O)C(C(C)C)NC2=O)c2ccccc21 (stereo not given) gave an MIC (Pyricularia oryzae [1]) of 0.127 µg/mL (≈ 0.359 µM).
For CC1CC[C@@H](O)/C=C/CC[C@H](O)C[C@@H](O)C/C=C\C=C\[C@@H](O)C/C=C/C=C\C(=O)O1 (stereo not given in full), the MIC (Pyricularia oryzae [2]) was 0.8 µg/mL (≈ 1.9 µM) and the MIC (Alternaria solani) was 0.8 µg/mL (≈ 1.9 µM).
Compound CO[C@@H]1[C@@H](O)[C@H](O[C@@H]2[C@@H](O)[C@H](O[C@@H]3[C@@H](O)[C@H](O)[C@@H](O[C@H]4[C@H](O[C@H]5CC[C@@H]6C7=C[C@H](O)[C@]89C(=O)O[C@@](C)(CCCC(C)C)[C@H]8CC[C@@]9(C)[C@@H]7CC[C@H]6C5(C)C)OC[C@@H](O[C@@H]5O[C@H](CO)[C@@H](O)[C@H](O[C@@H]6O[C@H](CO)[C@@H](O)[C@H](OC)[C@H]6O)[C@H]5O)[C@@H]4O)O[C@H]3C)O[C@H](CO)[C@H]2O)O[C@H](CO)[C@H]1O has an MIC (Candida tropicalis [3]) of 0.7 µM (≈ 0.989 µg/mL), an MIC (Candida albicans [4]) of 0.7 µM (≈ 0.989 µg/mL) and an MIC (Trichophyton rubrum) of 0.7 µM (≈ 0.989 µg/mL). The MIC (Pichia kudriavzevii [5]) was 0.7 µM (≈ 0.989 µg/mL), the MIC (Cryptococcus neoformans [6]) was 0.7 µM (≈ 0.989 µg/mL) and the MIC (Aspergillus fumigatus [7]) was 0.7 µM (≈ 0.989 µg/mL).
Work on CCCCCCCCC(O)C(O)CC/C=C\CCCCCC(O)C(N)CO (stereo not given) yielded an MIC (Candida tropicalis [8]) of 0.4 µg/mL (≈ 1.03 µM), an MIC (Candida albicans [9]) of 0.4 µg/mL and an MIC (Cryptococcus neoformans [10]) of 0.2 µg/mL (≈ 0.516 µM). The MIC (Candida tropicalis [11]) was 0.4 µg/mL (≈ 1.03 µM).
Work on CC(C)CC(=O)C[C@@H](C)[C@H]1CC[C@@]2(C)[C@H]3CC[C@H]4[C@](CO)(COS(=O)(=O)[O-])C(=O)CC[C@@]45C[C@@]35CC[C@]12C.[Na+] yielded an LC50 (Lindra thalassiae) of 0.94 µg/mL.
C/C(=C\[C@@H](O)C/C(C)=C/CCc1ccoc1)C/C=C/c1ccoc1 showed an MIC (Candida tropicalis [12]) of 2 µg/mL (≈ 6.13 µM), an MIC (Aspergillus niger) of 2 µg/mL (≈ 6.13 µM) and an MIC (Candida albicans [13]) of 0.25 µg/mL. For the same compound, the MIC (Fusarium oxysporum) was 1 µg/mL (≈ 3.06 µM).
Compound COC(=O)CCC[C@@H]1CC[C@@H](C#C/C=C/CCCCCC/C=C/Br)O1 has an MIC (Cryptococcus neoformans [14]) of 4 µg/mL (≈ 9.72 µM).
Work on CCCCC(C)C/C(=C/[C@@]1(CC)OC(=O)C[C@@H]1O)CC (stereo not given in full) [SIMPLEXOLIDE E] yielded an MIC (Cryptococcus neoformans [15]) of 3.66 µg/mL (≈ 13 µM).
CC[C@H](C)/C=C(C)/C=C/C1=CC2=C(Cl)C(=O)[C@@](C)(OC(C)=O)C(=O)C2=CO1 showed an IC50 (Aspergillus flavus) of 3.39 µg/mL (≈ 8.67 µM).
CO[C@@H]1[C@@H](O)[C@H](O[C@@H]2[C@@H](O)[C@H](O[C@@H]3CO[C@@H](O[C@H]4CC[C@]5(C)[C@@H]6CC[C@]78C(=O)O[C@@](C)(C[C@H](CC(C)C)OC(C)=O)[C@H]7C(=O)C[C@@]8(C)C6=CC[C@H]5C4(C)C)[C@H](O[C@@H]4O[C@H](C)[C@@H](O[C@@H]5OC[C@@H](O)[C@H](O[C@@H]6O[C@H](CO)[C@@H](O)[C@H](OC)[C@H]6O)[C@H]5O)[C@H](O)[C@H]4O)[C@H]3O)O[C@H](CO)[C@H]2O)O[C@H](CO)[C@H]1O was tested, and the MIC (Candida tropicalis [16]) was 1.4 µM (≈ 2.04 µg/mL) and the MIC (Nannizzia gypsea) was 1.4 µM (≈ 2.04 µg/mL).
Work on CC(C)C1=C2N=C3OC=CC=C[C@@]34OC[C@H]3O[C@@]4(OC3(C)C)N2[C@@H](Cc2ccccc2)C(=O)N1 yielded an MIC (Fusarium graminearum) of 4 µg/mL (≈ 8.63 µM).
With COc1ccc(/C=C/CCCC[C@H](C)[C@H](O)[C@@H](O)[C@H]2NC(=O)C[C@@H](O)CNC(=O)CNC(=O)[C@@H](Cc3c(C(=O)O)[nH]c4ccccc34)NC(=O)CN(C)C(=O)C[C@H]3NC(=O)[C@H](O)[C@H]3NC(=O)[C@H]2O)cc1 the MIC (Aspergillus fumigatus [17]) was 1.3 µg/mL (≈ 1.33 µM).
Compound COc1cc(/C=N/O)nc(-c2ccccn2)c1 [CAERULOMYCIN A] has an MIC (Nakaseomyces glabratus) of 0.39 µg/mL (≈ 1.7 µM) and an MIC (Pichia kudriavzevii [18]) of 0.39 µg/mL (≈ 1.7 µM).
Compound C=CC1OC1(C)CC(C)/C(C)=C/C=C(C)\C=C(OC)\C(=C/C(=O)OC)OC (stereo not given) has an MIC (Globisporangium ultimum) of 0.4 µg/mL (≈ 1.06 µM), an MIC (Botrytis cinerea) of 3.1 µg/mL (≈ 8.23 µM) and an MIC (Saprolegnia parasitica) of 0.1 µg/mL (≈ 0.266 µM).
